Settings: Gas chromatography

CC1=C2CC[C@@H](C)C[C@H]2OC1=O [(-)-mintlactone]
Metastable liquid
Settings | vapor or sublimation pressure [kPa]
298.15 K | 0.00033
305 K | 0.00063
310 K | 0.001
315 K | 0.0015
320 K | 0.0024
325 K | 0.0035
330 K | 0.0053
335 K | 0.0077
340 K | 0.011
345 K | 0.016
350 K | 0.023

CC1=C2CC[C@@H](C)C[C@@H]2OC1=O [(.+-.)-isomintlactone]
Metastable liquid
Settings | vapor or sublimation pressure [kPa]
298.15 K | 0.00026
305 K | 0.00051
310 K | 0.00081
315 K | 0.0013
320 K | 0.0019
325 K | 0.0029
330 K | 0.0044
335 K | 0.0064
340 K | 0.0093
345 K | 0.013
350 K | 0.019

CCCC[C@H]1OC(=O)C[C@H]1C [cis-whiskey lactone]
Liquid
Settings | vapor or sublimation pressure [kPa]
298.15 K | 0.0015
305 K | 0.0028
310 K | 0.0043
315 K | 0.0064
320 K | 0.0095
325 K | 0.014
330 K | 0.02
335 K | 0.029
340 K | 0.041
345 K | 0.057
350 K | 0.079

CCCC[C@H]1OC(=O)C[C@@H]1C [trans-whiskey lactone]
Liquid
Settings | vapor or sublimation pressure [kPa]
298.15 K | 0.002
305 K | 0.0036
310 K | 0.0056
315 K | 0.0084
320 K | 0.012
325 K | 0.018
330 K | 0.026
335 K | 0.037
340 K | 0.052
345 K | 0.072
350 K | 0.099

— the NIST ThermoML archive (doi:10.1016/j.jct.2017.02.010)
